Measurements taken from patent US20230149418A1, “METHODS AND SYNERGIC COMPOSITIONS FOR TREATING VIRAL INFECTIONS” (HADASIT MEDICAL RESEARCH SERVICES AND DEVELOPMENT LTD., priority 2018, published 2023).
Read-outs that look alike come from different tables or passages of the source.

Tested on: HCMV TB40/E strain
Assay: Plaque reduction assay, HCMV TB40/E strain in human foreskin fibroblasts, single drugs and 2-drug combinations (Chou-Talalay)
Assay type: cell-based, human cytomegalovirus
Conditions: for EC50: Human betaherpesvirus 5, Fibroblast; for Dose of drug alone at Fa 0.75: Fa 0.75, drug alone; for Dose of drug alone at Fa 0.9: Fa 0.9, drug alone; for Dose of drug alone at Fa 0.95: Fa 0.95, drug alone; for Dose of drug alone at Fa 0.97: Fa 0.97, drug alone; for Dose of drug alone at Fa 0.05: Fa (fraction of virus affected) 0.05, drug alone
Experimental: The CMV strain used was TB40/E. The CMV strain was propagated and tittered in human foreskin fibroblasts (HFF) cells. Cell-free virus stocks and cell-associated clinical isolates were maintained at -70° C. Viral stocks were tittered by serial 10-fold dilution in 24-well tissue culture plates containing HFF monolayers overlaid with agarose-medium. After incubation for 7 to 14 days, plaques were enumerated, and virus titer was determined as plaque forming units (PFU) per milliliter (ml). Stocks of artemisone (10 mM), ganciclovir (10 mM), BDCRB (120 mM), brincidofovir (1 mM), maribavir (10 mM) and letermovir (10 mM) were prepared in DMSO or H2O.
Cell monolayers were inoculated in 24-well culture plates with 0.2 ml of virus suspension containing 60 to 100 PFU per well. After adsorption for 60 -120 min at 37° C., the inoculum was removed, and culture medium was replaced with agarose-medium overlay containing serial concentrations of the tested drug(s). Plates were incubated for 7-14 days at 37° C. in a 5% CO2 incubator. Plaques were then counted microscopically.
The effect of a combination of artemisone with each one of ganciclovir (HCMV DNA polymerase), BDCRB (HCMV terminase inhibitor), brincidofovir (HCMV DNA polymerase inhibitor), maribavir (HCMV UL97 kinase inhibitor) and letermovir (HCMV terminase inhibitor) was evaluated by the classical plaque reduction assay. The in vitro activity of each of the above mentioned antiviral compounds alone or in combination with artemisone was evaluated by the classical plaque reduction assay, using HCMV TB40/E strain in human foreskin fibroblasts cells. The concentration of each antiviral compound that reduced the plaque formation by 50% (EC50) was determined as previously described in Wolf DG et al., J Clin Invest. 1995;95:257-63. The individual EC50 values in human foreskin fibroblasts were as follows: artemisone EC50 - 1 µM; ganciclovir EC50 - 1 µM; maribavir EC50 - 1 µM; BDCRB EC50 - 0.5 µM; letermovir EC50 - 5 nM; brincidofovir EC50 -1 nM.
For the 2-drug combination studies, the EC50 value of each drug was used to determine an equipotent ratio between the two compounds (EC50 of drug 1 / EC50 of drug 2). Serial 2-fold dilutions of a mixture comprising artemisone and another antiviral compound at initial concentrations equivalent to 4-fold the equipotent ratio were added to duplicate wells of cells infected with HCMV. Overall, 5 different concentrations of the drug combinations were used: 4xEC50, 2xEC50, 1xEC50,0.5xEC50,0.25xEC50. The cell monolayers were inoculated in 24-well culture plates with 0.2 ml of virus suspension containing 60 to 100 plaque-forming unit (PFU) per well; the Multiplicity of infection (MOI) was 0.001-0.002 PFU/cell).
D1 and D2 are the doses of the two drugs, and Dx is a dose causing to x% effect (LD0.5 is EC50). Briefly, the software extrapolated a combination index (CI) representing the interaction between the two drugs at specified levels of virus inhibition (that is 50%, 75%, 90%, 95%) versus the percentages of the inhibition induced by each drug alone and in combination (equation 16 in Chou).
A weighted average CI (CIwt) was then calculated for each combination as (CI50+ 2×CI75+3×CI90+4×CI95)/10, to access the drug combinatory effects.
The dose reduction index (DRI) was then calculated as described in Chou. In general, the DRI measures the fold of dose reduction of each drug in the combination at a given effect level compared with the doses of each drug alone. For each one of the below tables: Fa - fraction of virus affected; doses are provided in µm.

[1] = drug alone, human foreskin fibroblasts, read-out: EC50 (concentration that reduced the plaque formation by 50%)
[2] = Fa 0.5, drug alone, read-out: Dose of drug alone at Fa 0.5

`OC[C@H]1O[C@@H](n2c(Br)nc3cc(Cl)c(Cl)cc32)[C@H](O)[C@@H]1O` [BDCRB, 2-bromo-5,6-dichloro-1-beta-D-ribofuranosyl benzimidazole] showed an EC50 [1] of 500 nM.
In the case of `Nc1ccn(C[C@@H](CO)OCP(=O)(O)O)c(=O)n1` [cidofovir], the “Dose of drug alone at Fa 0.75” value is reported as 0.646 µm, the “Dose of drug alone at Fa 0.9” value is reported as 1.148 µm and the “Dose of drug alone at Fa 0.95” value is reported as 1.698 µm. The “Dose of drug alone at Fa 0.97” value was 2.242 µm, the “Dose of drug alone at Fa 0.05” value was 0.07783 µm and the EC50 [2] was 364 nM. For the same compound, the “DRI (dose reduction index)” value (combination artemisone + cidofovir, Fa 0.05) was 1.038, the “DRI (dose reduction index)” value (combination artemisone + cidofovir, Fa 0.5) was 1.757 and the “DRI (dose reduction index)” value (combination artemisone + cidofovir, Fa 0.75) was 2.139. For the same compound, the “DRI (dose reduction index)” value (combination artemisone + cidofovir, Fa 0.9) was 2.6, the “DRI (dose reduction index)” value (combination artemisone + cidofovir, Fa 0.9, listed as CDV) was 2.603 and the “DRI (dose reduction index)” value (combination artemisone + cidofovir, Fa 0.95) was 2.975. For the same compound, the “DRI (dose reduction index)” value (combination artemisone + cidofovir, Fa 0.97) was “up to 3.27” and the “DRI (dose reduction index)” value (combination artemisone + cidofovir, Fa 0.97, listed as CDV) was 3.271.
`Nc1nc2c(ncn2COC(CO)CO)c(=O)[nH]1` [ganciclovir] was tested, and the “Dose of drug alone at Fa 0.75” value was 1.113 µm, the “Dose of drug alone at Fa 0.9” value was 2.12 µm and the “Dose of drug alone at Fa 0.9” value (listed as GCV) was 2.121 µm. The “Dose of drug alone at Fa 0.95” value was 3.287 µm, the “Dose of drug alone at Fa 0.97” value was 4.491 µm and the “Dose of drug alone at Fa 0.05” value was 0.1039 µm. The EC50 [2] was 584 nM, the EC50 [1] was 1000 nM and the “DRI (dose reduction index)” value (combination artemisone + ganciclovir, Fa 0.05) was 1.342. For the same compound, the “DRI (dose reduction index)” value (combination artemisone + ganciclovir, Fa 0.5) was 1.673, the “DRI (dose reduction index)” value (combination artemisone + ganciclovir, Fa 0.75) was 1.817 and the “DRI (dose reduction index)” value (combination artemisone + ganciclovir, Fa 0.9, listed as GCV) was 1.973. The “DRI (dose reduction index)” value (combination artemisone + ganciclovir, Fa 0.95) was 2.09, the “DRI (dose reduction index)” value (combination artemisone + ganciclovir, Fa 0.95, listed as GCV) was 2.086 and the “DRI (dose reduction index)” value (combination artemisone + ganciclovir, Fa 0.97) was 2.171.
